{"source": "paper PMC7961786", "about": "“Magic Peptide: Unique Properties of the LRR11 Peptide in the Activation of Leukotriene Synthesis in Human Neutrophils” (International Journal of Molecular Sciences, 2021)", "key": {"[1]": {"tested_on": "human neutrophils (PMNLs), 5-LOX product synthesis", "experiment": "5-LOX metabolite synthesis in human neutrophils stimulated with opsonized S. typhimurium (HPLC)", "assay_type": "cell-based", "method": "Figure 1 Effects of LRR11 and ODNs on the formation of LTB4 (A,B) and the sum of 5-LOX metabolites (ω-OH-LTB4, LTB4 and its isomers, and 5-HETE) (C) in human PMNLs. PMNLs (2 × 10^7) were incubated for 15 min at 37 °C without (black bars) or with 1 μM LRR11 (A, LRR11_first); then ODNs and LRR11 or LPS were added; various ways of adding ODN and LRR11 peptide are indicated. In control samples, Hanks’ solution was added instead of ODNs. After 20 min, 0.5 × 10^9 S. typhimurium bacterial cells were added for a further 15 min. The 5-LOX products were determined using HPLC. Values indicate mean ± SEM of five independent experiments performed in duplicate. * p < 0.05, ** p < 0.01, *** p < 0.005, compared with the control. # p < 0.05, ## p < 0.01 for pairs of data compared as indicated by two-way ANOVA followed by Tukey’s multiple comparison test.\nFigure 3 Synthesis of the 5-LOX metabolites in PMNLs exposed to opsonized S. typhimurium bacteria in the presence of the RAGE antagonist FPS-ZM1. PMNLs (2 × 10^7) were incubated for 15 min at 37 °C without additives or with 0.15 µM FPS-ZM1, for the next 20 min the mixture was incubated with 1 µM ODNs without (black bars) or with 1 µM LRR11 (gray bars) before adding 5 × 10^8 S. typhimurium for 15 min. In control samples, Hanks’ solution was added instead of ODNs. The 5-LOX products were determined using HPLC. Graphical data are presented for LTB4 (A) or the sum of LTB4 and its isomers, ω-OH-LTB4 and 5-HETE, designed as Σ5LOX products (B).\nHuman neutrophils were isolated from freshly taken citrate-anticoagulated peripheral blood from healthy individuals using standard methods. Leukocyte-rich plasma was prepared by sedimentation of erythrocytes with 3% dextran T-500 at room temperature. For purification of granulocytes, centrifugation through Ficoll-Paque (density 1.077 g/mL) was used, followed by hypotonic lysis of the remaining erythrocytes. […] All methods were performed in accordance with the relevant instructions and regulations of the Ministry of Health of the Russian Federation and local legislation.\nBacteria (S. typhimurium IE 147 strain) obtained from the Collection of Gamaleya National Research Center of Epidemiology and Microbiology (Moscow, Russia) were grown in Luria–Bertani broth to a concentration of 1 × 10^9 colony-forming units (CFU)/mL. The bacteria were collected by centrifugation at 2000 g and opsonized immediately before the experiment for 30 min in 20% (v/v) fresh serum from the same donor whose blood was used to isolate neutrophils. Repeated centrifugation in Dulbecco’s solution was used to wash the bacteria.\nThe cell suspension (2 × 10^7 PMNLs in HBSS/HEPES, reaction volume of 6 mL) was cultured for 15 min in an incubator at 37 °C, 5% CO2. Then 1.0 µM ODN with or without 1.0 µM LRR11, or 2 µg/mL LPS, was added as indicated. After 20 min, the cells were stimulated with S. typhimurium (the ratio of bacteria to PMNLs was approximately 20:1) for the next 15 min [3]. The synthesis of 5-LOX metabolites was stopped by adding an equal volume of methanol at −20 °C with prostaglandin B2 as an internal standard. Samples were stored at −20 °C. The denatured cell suspension was centrifuged, and supernatants designated as water/methanol extracts.\n(§1) To purify the water/methanol extracts, solid-phase extraction was used on Sep-Pak C18 cartridges (500 mg; Macherey-Nagel, Dueren, Germany), which were conditioned first with methanol, and then with water. Major 5-LOX metabolites were identified by comparing retention times with those of known compounds, as previously described.\nTable S1. Effect of Chloroquine on 5-LOX product formation in PMNLs after ODN priming followed by the addition\nof opsonized S. typhimurium bacteria."}, "[2]": {"tested_on": "PMNLs", "experiment": "Phagocytosis of FITC-labeled S. typhimurium by neutrophils", "assay_type": "cell-based, human", "details": "1 µM ODN +/- 1 µM LRR11, FITC-labeled S. typhimurium 20 min; n = 3; Figure S2b", "method": "Figure S2b. Influence of LRR11 and ODNs on phagocytic activity of neutrophils. PMNLs supplemented with 1 µM ODN +/- 1 µM LRR11, except for control samples containing HBSS/HEPES instead of ODNs, were incubated for 20 min in Eppendorf tubes at 37 °C in 5% CO2 with continuous stirring. FITC-labeled S. typhimurium were then added for next 20 min, followed by FACS analysis (excitation: 488 nm, emission: 525 nm). Both the relative amounts of PMNLs involved in phagocytosis (A, B) and the fluorescence intensities, reflecting the average number of bacteria captured per cell (C, D), were estimated. To distinguish between internalized and surface-bound bacterial cells, trypan blue at a working concentration of 1 mg/ml, was used to quench the surface FITC fluorescence caused by the attached bacteria. Thus, each series of samples was duplicated to obtain results both without (A, C) and with (B, D) TB quenching, which corresponds to the total interaction and uptake of bacteria. Averaged flow cytometry data are presented, including means ± SEM for the percentages of FITC-positive (i.e., phagocytic) cells (A, B), and mean ± SEM for fluorescence intensities of FITC-positive subpopulations (C, D) (n=3; * p < 0.05; ** p < 0.01 in comparison with corresponding controls, ns – non significant, as indicated by two-way ANOVA followed by Dunnett’s or Tukey’s multiple comparison tests). […]"}, "[3]": {"tested_on": "TLR9 signaling", "details": "ref [25]; cited from earlier work"}, "[4]": {"tested_on": "human neutrophils (PMNLs), 5-LOX product synthesis", "set-up": "method as in PMID 27036535", "details": "ref [3]; cited from earlier work"}, "[5]": {"tested_on": "telomeric G-quadruplex DNA", "details": "ref [42]; cited from earlier work", "from_the_text": "(§2) LRR11, like LL-37, belongs to the group of cationic antimicrobial peptides, which are characterized by high content of hydrophobic residues (~40%) and overall positive charge due to the increased content of Arg and Lys residues. They block many functions of LPS [39, 40], interact with intracellular DNA, and mediate DNA uptake and transport in mammalian cells."}, "[6]": {"tested_on": "cells, CpG-ODN delivery", "details": "ref [43],[44]; cited from earlier work", "from_the_text": "as §2"}, "[7]": {"tested_on": "human neutrophils (PMNLs)", "experiment": "Binding and uptake of FAM-labeled ODNs by neutrophils (flow cytometry)", "assay_type": "cell-based", "details": "0.15 µM FPS-ZM1, 15 min, then 1 µM FAM-ODN 20 min; n = 3; Figure 7", "method": "Figure 6 The LRR11 peptide affects the binding and uptake of ODNs by neutrophilic granulocytes. PMNLs (1 × 10^6/mL) in HBSS/HEPES were incubated for 20 min at 37 °C in 5% CO2 with 1 µM FAM-labeled ODN, supplemented or not with 1 µM LRR11 peptide. Both the total ODN accumulation (red) and its intracellular constituent (black) were analyzed by flow cytometry. Surface fluorescence was quenched by trypan blue (TB) solution. Values represent the means ± SEM of FAM fluorescence intensities (RFU, relative fluorescence units) (n = 8). ** p < 0.01; *** p < 0.005, **** p < 0.001 for specified data pairs, as indicated by two-way ANOVA followed by Tukey’s multiple comparison test. Mean fluorescence intensities of unstained PMNLs were 62 ± 12 and 39 ± 5.6 without or after TB quenching, respectively.\nFigure 7 RAGE antagonist effect on oligonucleotide penetration into neutrophil cells. […] Both total oligonucleotide accumulation (A) and its intracellular constituent (B) were analyzed by flow cytometry. The surface fluorescence was quenched by trypan blue solution. Values represent the means ± SEM of FAM fluorescence intensities (RFU) (n = 3). * p < 0.05; […]; *** p < 0.005 for the pair of data specified, as indicated by two-way ANOVA followed by Tukey’s multiple comparison test. Fluorescence intensities of unstained controls were 62 ± 14 and 49 ± 6 without, or after TB quenching, respectively. […]"}, "[8]": {"tested_on": "PMNLs, 5-LOX product formation", "experiment": "5-LOX product formation in PMNLs stimulated by calcium ionophore A23187", "assay_type": "cell-based, human", "method": "Human neutrophils were isolated from freshly taken citrate-anticoagulated peripheral blood from healthy individuals using standard methods. Leukocyte-rich plasma was prepared by sedimentation of erythrocytes with 3% dextran T-500 at room temperature. For purification of granulocytes, centrifugation through Ficoll-Paque (density 1.077 g/mL) was used, followed by hypotonic lysis of the remaining erythrocytes. PMNLs were washed twice in PBS, resuspended at 10^7 cells/mL (96–97% purity, 98–99% viability) in Dulbecco’s PBS containing 1 mg/mL glucose (no CaCl2) and stored at room temperature. All methods were performed in accordance with the relevant instructions and regulations of the Ministry of Health of the Russian Federation and local legislation.\nas §1"}, "[9]": {"tested_on": "vascular smooth muscle cells", "details": "ref [56]; cited from earlier work", "from_the_text": "RAGE is shown to bind molecules, known as damage-associated molecular patterns (DAMPs), released by cells that die or are under conditions of inflammation."}}, "note": "Oligonucleotides are written 5' to 3', each unit as a sugar letter and its base; * is a phosphorothioate linkage, no mark a phosphodiester; rarer units and linkages stand in square brackets, end groups in braces. Plain capitals give the bases only. d = 2'-deoxy (DNA)"}
{"molecule": "5′-ggTTAGGGTTAGGGTTAGGGTTAGGGggggg-3′ (DNA dG*dG*dTdTdAdGdGdGdTdTdAdGdGdGdTdTdAdGdGdGdTdTdAdGdGdGdG*dG*dG*dG*dG) [G-rich ODN, G-rich ODN containing human telomeric tandem repeats]", "values": [{"measurement": "effect on 5-LOX activity / leukotriene synthesis", "setting": "[1]; ODN alone, 1 µM, 20 min, then opsonized S. typhimurium 15 min, Figure 1, five independent experiments in duplicate", "value": "increased leukotriene synthesis"}, {"measurement": "effect on bacteria engulfment", "setting": "[2]", "value": "only G-rich ODN facilitated the bacteria engulfment"}]}
{"molecule": "CCN(CC)CCCC(C)Nc1ccnc2cc(Cl)ccc12", "note": "(centres unmarked) [Chloroquine]", "values": [{"measurement": "inhibition of CpG-ODN–induced cell activation", "setting": "[3]", "value": "known to inhibit CpG-ODN–induced cell activation"}, {"measurement": "effect of chloroquine on CpG-ODN action on 5-LOX products", "setting": "[1]; 5 µM Chloroquine, B- and C-class CpG-ODNs, Table S1", "value": "the effects of B- and C-class CpG-ODNs were not sensitive to chloroquine"}, {"measurement": "Σ 5-LOX metabolites", "setting": "[1]; Table S1, 2×10^7 PMNLs, 15 min at 37 °C without or with 5 µM Chloroquine, then ODN, after 20 min 0.5×10^9 opsonized S. typhimurium for 15 min, mean ± SEM, three independent experiments", "value": "19.8 ± 2.7", "unit": "ng/107 PMNLs"}, {"measurement": "effect of chloroquine on inhibition of 5-LOX product formation by ODN 2216", "setting": "[4]", "value": "abrogated by chloroquine"}]}
{"molecule": "LL-37", "values": [{"measurement": "complex with telomeric G-quadruplex DNA", "setting": "[5]", "value": "forms a complex with telomeric G-quadruplex DNA"}, {"measurement": "delivery of bacterial CpG-ODNs to cells", "setting": "[6]", "value": "promotes the rapid delivery of bacterial CpG-ODNs to cells"}]}
{"molecule": "O=C(c1ccc(Cl)cc1)N(Cc1ccccc1)C1CCCCC1", "note": "[FPS-ZM1]", "values": [{"measurement": "effect of FPS-ZM1 on 5-LOX product formation stimulated by bacterial phagocytosis", "setting": "[1]; 0.15 µM FPS-ZM1, S. typhimurium, Figure 3", "value": "inhibited the 5-LOX product formation stimulated by bacterial phagocytosis"}, {"measurement": "effect of FPS-ZM1 on ODN effects on leukotriene synthesis", "setting": "[1]; 150 nM FPS-ZM1, 15 min before 1 µM ODNs, Figure 3, four independent experiments", "value": "strongly reduce the effects of ODNs on leukotriene synthesis"}, {"measurement": "effect of RAGE antagonist on ODN internalization", "setting": "[7]", "value": "suppressed ODN internalization"}, {"measurement": "Σ 5-LOX metabolites", "setting": "[8]; 150 nM FPS-ZM1 30 min at 37 °C, then 1 µM A23187 10 min, mean ± SEM, three independent experiments", "value": "438 ± 42", "unit": "ng/10^7 PMNLs"}, {"measurement": "effect of FPS-ZM1 on A23187-induced leukotriene synthesis", "setting": "[8]; 150 nM FPS-ZM1, 1 µM A23187", "value": "did not affect the leukotriene synthesis induced by the calcium ionophore A23187"}]}
{"molecule": "CCCCC/C=C\\C[C@@H](O)/C=C/C=C/C=C\\[C@@H](O)CCCC(=O)O", "note": "[LTB4, leukotriene B4, reference compound]", "values": [{"measurement": "RAGE expression / LTB4 production in vascular smooth muscle cells", "setting": "[9]", "value": "increases RAGE expression in proliferating human vascular smooth muscle cells"}]}
